Assay results from US20250051403A1, “ANTIMICROBIAL PEPTIDES, VARIANTS AND CHEMICAL ANALOGUES THEREOF AND THEIR USES” (priority 2021, published 2025).
Values after ≈ are worked out from the molar mass of the structure shown. Like-named read-outs stand apart in the source and are kept apart here. Positions of bridges follow the written chain, without caps; N, C: chain ends. Residues, ends and D or L forms follow the SMILES beside them.

Tests used:
[1] = tested on: A. baumannii antibiotic resistant (CIP 110431)
V. diabolicus = assay: Scanning electron microscopy of treated bacteria; format: cell-based, Vibrio diabolicus; settings: FIG. 9
Excerpt: (§1) The arrows show pore formed through the membrane. For V. diabolicus, despite the results of FIG. 3, is seems that Michelicin has a pore-forming activity on these bacteria.

[2] = tested on: P. aeruginosa Fluoroquinolone resistant (CIP 107398); assay: MIC, broth microdilution; format: cell-based, Pseudomonas aeruginosa
[3] = tested on: M. abscessus R (CIP104537^TR); settings: Table IV; REMA, 90% growth inhibition
[4] = tested on: Escherichia coli (ATCC 8739); assay: MIC, broth microdilution; format: cell-based
[5] = tested on: E. coli carbapenem- resistant (DSMZ 22314)
S. aureus (Pasteur) = assay: MIC, broth microdilution; format: cell-based, Staphylococcus aureus
[6] = tested on: Bacillus subtilis (ATCC 6633); assay: MIC, broth microdilution; format: cell-based; settings: Table IV
Description: (§2) To standardize the bacterial cell suspension for assay of antibacterial activity, some colonies of each strain grown overnight on MHA (Mueller Hinton Agar. ROTH) plates were suspended in MHB (Mueller Hinton Broth. ROTH) or MHB saline (Mueller Hinton Broth containing 565 mM NaCl) and incubated at 37° C. or 30° C. until visible turbid. This log-phase inoculum was diluted 1:100 in the same culture media. Using sterile 96-well microtiter plates (CELLSTAR. Greiner bio-one), serial 2-fold dilutions (40 to 0.78 μM) of each peptide were prepared in cation-adjusted acetic acid 0.02% with 0.4% BSA (Bovin Serum Albumin fraction V. Boehringer) at a volume of 10 μL/well. Each well was inoculated with 100 μL of the standardized bacterial inoculum, corresponding to a final test concentration of about 10^5 CFU/mL. Antimicrobial activities were expressed as the MIC (Minimal Inhibitory Concentration), the lowest concentration of peptide at which 100% inhibition of microbial growth was observed after 24 h of incubation at 37° C. or 30° C. by measuring OD600 in a microtiter plate reader. The minimal bactericidal concentration (MBC) was defined as the peptide concentration where no colony growth was observed.
(§3) The same experiments as described in 1) were performed. For the evaluation of antimicrobial activity against some other strains, a resazurin microtiter assay was used as explained hereinafter.

[7] = tested on: Salmonella enterica (CIP 80.39); assay: MIC, broth microdilution; format: cell-based; settings: Table IV
Description: as §2, §3

[8] = tested on: V. alginolyticus (MPV19 IFREMER); assay: MIC, broth microdilution; format: cell-based, Vibrio alginolyticus
V. alginolyticus = assay: Scanning electron microscopy of treated bacteria; format: cell-based, Vibrio alginolyticus; settings: FIG. 9
Excerpt: as §1

[9] = tested on: Mycobacterium tuberculosis mc^26230
Pseudomonas sp. = assay: MIC, broth microdilution; format: cell-based; settings: Table III; MHB saline 565 mM NaCl
Description: as §2

Serratia marcescens = assay: MIC, broth microdilution; format: cell-based
[10] = tested on: Klebsiella pneumoniae carbapenem-resistant (DSMZ 26371); assay: MIC, broth microdilution; format: cell-based
[11] = tested on: B. subtilis nisin resistant (DSMZ 347); settings: Table IV
[12] = tested on: S. aureus methicillin resistant USA300 (ATCC BAA-1717); assay: MIC, broth microdilution; format: cell-based, Staphylococcus aureus
[13] = tested on: Pseudomonas aeruginosa (ATCC 9027); assay: MIC, broth microdilution; format: cell-based; settings: Table IV
E. coli (D31 Pasteur) = assay: MIC, broth microdilution; format: cell-based, Escherichia coli; settings: Table IV
Description: as §2, §3

[14] = tested on: Enterococcus faecalis Vancomycin-resistant (DSMZ 13591); assay: MIC, broth microdilution; format: cell-based
M. bovis BCG Pasteur = settings: Table IV; REMA, 90% growth inhibition
[15] = tested on: Staphylococcus aureus (ATCC 6538P); assay: MIC, broth microdilution; format: cell-based
[16] = tested on: Helicobacter pylori (ATCC 43504); assay: MIC, broth microdilution; format: cell-based
Pseudomonas sp biofilm = assay: Biofilm formation assay (crystal violet); format: cell-based; settings: 20 μM peptide, 2 h at 37° C. on 48 h biofilm; untreated culture 0.95
Description: Overnight cultures of V. diabolicus and Pseudomonas sp (37° C., 200 rpm) were diluted to an OD600 of 0.1 in MHB medium and 200 μL aliquots of the suspensions were introduced into the wells of a 96 microtiter plates (Nunc). Plates were then incubated at 37° C. without shaking for 48 h. After removal of the standing culture, the wells were washed with MHB medium and Michelicin, Arenicin and Alvinellacin were added, respectively, at a final concentration of 20 μM in MHB. The treatment was performed during 2 h at 37° C. Wells were then washed three times with distilled water and the remaining attached bacteria were fixed with 99% methanol per well for 20 min at room temperature. Afterward, methanol was removed and plates were air-dried. Biofilms were stained with 300 μL of 1% crystal violet (v/v) for 20 min at room temperature, before the residual stain was removed. After washing, the crystal violet bound to the adherent cells was solubilized with 300 μL of 100% ethanol and absorbance was measured at 595 nm (TECAN, sunrise). Sterile medium served as negative control. It is clear on the view of FIG. 3 that Michelicin has a greater antimicrobial activity on a biofilm of Pseudomonoas sp strains than Alvinellacin. For Pseudomonas sp, OD595 is equal to 0.6 when treated with Michelicin, equal to 0.55 when treated with Arenicin and equal to 0.65 when treated with Alvinellacin. […]

[17] = tested on: Burkholderia cepacia (DSM 7288); assay: MIC, broth microdilution; format: cell-based
[18] = tested on: Acinetobacter baumannii (CIP 103572); assay: MIC, broth microdilution; format: cell-based
Jurkat human cells = settings: cited from earlier work
[19] = Cytotoxicity, resazurin cell viability; format: cell-based, human; settings: human
Description: The toxicity of Michelicin on human cells was tested as previously described (Borie et al., 2017; Oyama et al., 2017). Briefly, human cells were cultured in Dulbecco's modified essential medium (DMEM) supplemented with 10% fetal calf serum (FCS), 1% L-glutamine and 1% antibiotics (all from Invitrogen). Cells were routinely grown in onto 25 cm^2 flasks maintained in a 5% CO2 incubator at 37° C. For toxicity assay, cells grown on 25 cm^2 flasks were detached using trypsin-EDTA solution (Thermofisher) and seeded into 96-well cell culture plates (Greiner Bio-one) at approximately 10^4 cells per well (counted using Mallasez's chamber). The cells were grown at 37° C. in a 5% CO2 incubator until they reached confluence (approximately 48-72 h of seeding). Wells were then aspirated and increasing concentrations of AMP were added to the cells and incubated for a further 48 h at 37° C. in a 5% CO2 incubator. The wells were then emptied, and cell viability was evaluated using resazurin based in vitro toxicity assay kit (Sigma-Aldrich) following manufacturer's instructions. Briefly, resazurin stock solution was diluted 1:100 in sterile PBS containing calcium and magnesium (PBS++, pH 7.4) and emptied wells were filled with 100 μL of the resazurin diluted solution. After 4 h incubation at 37° C. with the peptide treated cells, fluorescence intensity was measured using microplate reader (SynerMix, Bioteck) (excitation wavelength of 530 nm/emission wavelength of 590 nm). The fluorescence values were normalized by the controls and expressed as percentage of cell viability. The IC50 values of tested AMP on cell viability (i.e. the concentration of peptides causing a reduction of 50% of the cell viability) were calculated using GraphPad® Prism 7 software. Two cell lines were tested: Human Bronchial Epithelial Cell Line (BEAS; ATCC CRL-9609) and Human umbilical vein endothelial cell (HUVEC).

Structure (SMILES): CSCC[C@@H]1NC(=O)[C@@H]2CSSC[C@H](NC(=O)[C@H](CCCNC(=N)N)NC(=O)[C@H]([C@@H](C)O)NC(=O)[C@H](Cc3ccc(O)cc3)NC(=O)[C@@H](NC(=O)CNC(=O)[C@@H](N)CCCNC(=N)N)CSSC[C@@H](C(=O)N[C@H](C(=O)O)[C@@H](C)O)NC(=O)[C@H](C(C)C)NC(=O)[C@H](CCCNC(=N)N)NC1=O)C(=O)N[C@@H](Cc1c[nH]c3ccccc13)C(=O)N[C@@H](CCCCN)C(=O)N[C@@H](C(C)C)C(=O)NCC(=O)N[C@@H](CCCNC(=N)N)C(=O)N[C@@H](CC(N)=O)C(=O)NCC(=O)N[C@@H](CCCNC(=N)N)C(=O)N[C@@H](C(C)C)C(=O)N2 [Alvinellacin] (H-RGCYTRCWKVGRNGRVCMRVCT-OH; disulfide 3-21, 7-17; N-terminus and C-terminus assumed)
- MIC ([1]; Table IV): 0.625 to 1.25 µM
- Membrane damage seen by scanning electron microscopy (V. diabolicus): able to damage
- MIC ([2]; Table IV): 1.25 to 2.5 µM
- MIC [3]: 17.0 to 17.8 µM
- MIC (V. diabolicus (HE 800)): 2.5 to 5 µM
- MIC with 565 mM NaCl (V. diabolicus (HE 800)): 2.5 to 5 µM
- MIC ([4]; Table IV): 1.25 to 2.5 µM
- MIC ([5]; Table IV): 0.625 to 1.25 µM
- MIC (S. aureus (Pasteur); Table IV): 1.25 to 2.5 µM
- MIC [6]: 0.625 to 1.25 µM
- MIC [7]: 0.625 to 1.25 µM
- MIC ([8]; Table III, MHB): 0.07 to 0.15 µM
- MIC with 565 mM NaCl ([8]; Table III, MHB saline 565 mM NaCl): 0.62 to 1.25 µM
- MIC ([8]; Table IV): 0.07 to 0.15 µM
- Membrane damage seen by scanning electron microscopy (V. alginolyticus): able to damage
- MIC [9]: 16.0 to 21.5 µM
- MIC with 565 mM NaCl (Pseudomonas sp.): 5 to 10 µM
- MIC (Serratia marcescens; Table IV): >50 µM
- MIC ([10]; Table IV): 1.25 to 2.5 µM
- MIC [11]: 0.625 to 1.25 µM
- MIC ([12]; Table IV): 2.5 to 5 µM
- MIC [13]: 1.25 to 2.5 µM
- MIC (E. coli (D31 Pasteur)): 0.31 to 0.62 µM
- MIC (Vibrio alginolyticus): 0.07 to 0.15 µM
- MIC with 565 mM NaCl (Vibrio alginolyticus): 0.07 to 0.15 µM
- MIC (Vibrio alginolyticus; 24 h): 0.07 to 0.15 µM
- MIC ([14]; Table IV): 20 to 40 µM
- MIC (Bacillus megaterium): 0.15 to 0.31 µM
- MIC with 565 mM NaCl (Bacillus megaterium): 2.5 to 5 µM
- MIC (M. bovis BCG Pasteur): 12.0 to 21.4 µM
- MIC ([15]; Table IV): 2.5 to 5 µM
- MIC ([16]; Table IV): 1.25 to 2.5 µM
- Biofilm OD595 after treatment (Pseudomonas sp biofilm): 0.65
- MIC ([17]; Table IV): 10 µM (≈ 26 µg/mL)
- MIC ([18]; Table IV): 1.25 to 2.5 µM

Structure (SMILES): CC(C)C[C@@H]1NC(=O)[C@H](C(C)C)NC(=O)CNC(=O)[C@H](CCCNC(=N)N)NC(=O)[C@H](C(C)C)NC(=O)[C@H](CCCNC(=N)N)NC(=O)[C@H](C(C)C)NC(=O)[C@H](Cc2ccc(O)cc2)NC(=O)[C@H](C)NC(=O)[C@H](Cc2ccc(O)cc2)NC(=O)[C@H](C(C)C)NC(=O)[C@@H](NC(=O)[C@H](Cc2c[nH]c3ccccc23)NC(=O)[C@@H](N)CCCNC(=N)N)CSSC[C@@H](C(=O)N[C@@H](Cc2c[nH]c3ccccc23)C(=O)O)NC(=O)[C@H](CCCNC(=N)N)NC(=O)[C@H](CCCNC(=N)N)NC(=O)[C@H](Cc2ccc(O)cc2)NC(=O)[C@H](CCCNC(=N)N)NC(=O)[C@H](C(C)C)NC1=O [Arenicin] (H-RWCVYAYVRVRGVLVRYRRCW-OH; disulfide 3-20)
- Cytotoxicity towards Jurkat human cells (Jurkat human cells): cytotoxic
- MIC ([1]; CIP 110431): 20 to 40 µM
- MIC ([2]; CIP 107398): 1.25 to 2.5 µM
- MIC (V. diabolicus (HE 800)): 1.25 to 2.5 µM
- MIC with 565 mM NaCl (V. diabolicus (HE 800)): 10 to 20 µM
- MIC ([4]; ATCC 8739): 2.5 to 5 µM
- MIC ([5]; DSMZ 22314): 2.5 to 5 µM
- MIC (S. aureus (Pasteur); Pasteur): 1.25 to 2.5 µM
- MIC [8]: 0.15 to 0.31 µM
- MIC with 565 mM NaCl [8]: 2.5 to 5 µM
- MIC [9]: 7.1 to 12.2 µM
- MIC (Serratia marcescens): >50 µM
- MIC ([10]; DSMZ 26371): 1.25 to 2.5 µM
- MIC ([12]; USA300): 5 to 10 µM
- viability at 48 h, 80 µM ([19]; BEAS human bronchial epithelial cells (ATCC CRL-9609)): 95%
- viability at 48 h, 80 µM ([19]; HUVEC (human umbilical vein endothelial cells)): 40%
- MIC (Vibrio alginolyticus): 0.15 to 0.31 µM
- MIC with 565 mM NaCl (Vibrio alginolyticus): 0.07 to 0.15 µM
- MIC (Vibrio alginolyticus; 24 h): 0.15 to 0.31 µM
- MIC ([14]; DSMZ 13591): 1.25 to 2.5 µM
- MIC (Bacillus megaterium): 0.07 to 0.15 µM
- MIC with 565 mM NaCl (Bacillus megaterium): 20 to 40 µM
- MIC ([15]; ATCC 6538): 1.25 to 2.5 µM
- MIC ([16]; ATCC 43504): 1.25 to 2.5 µM
- Biofilm OD595 after treatment (Pseudomonas sp biofilm): 0.55
- MIC (M. smegmatis mc^2155): 0.7 to 10 µM
- MIC ([17]; DSM 7288): 25 µM (≈ 69 µg/mL)
- MIC ([18]; CIP 103572): 1.25 to 2.5 µM
